# According to ChEMBL document CHEMBL1124620, “New 1,4-dihydropyridine derivatives combining calcium antagonism and alpha-adrenolytic properties” (J Med Chem, 1989):
# Key:
# [1] = target: T1, Adrenergic receptor alpha-2 (Homo sapiens, UniProt P08913+P18825+P18089); experiment: In vitro ability to inhibit norepinephrine binding to alpha-2 adrenergic receptor of guinea pig vas deferens; format: tissue-based, Cavia porcellus; settings: target entry is the homologue from another species
# T1 sequence (P08913 whole entry): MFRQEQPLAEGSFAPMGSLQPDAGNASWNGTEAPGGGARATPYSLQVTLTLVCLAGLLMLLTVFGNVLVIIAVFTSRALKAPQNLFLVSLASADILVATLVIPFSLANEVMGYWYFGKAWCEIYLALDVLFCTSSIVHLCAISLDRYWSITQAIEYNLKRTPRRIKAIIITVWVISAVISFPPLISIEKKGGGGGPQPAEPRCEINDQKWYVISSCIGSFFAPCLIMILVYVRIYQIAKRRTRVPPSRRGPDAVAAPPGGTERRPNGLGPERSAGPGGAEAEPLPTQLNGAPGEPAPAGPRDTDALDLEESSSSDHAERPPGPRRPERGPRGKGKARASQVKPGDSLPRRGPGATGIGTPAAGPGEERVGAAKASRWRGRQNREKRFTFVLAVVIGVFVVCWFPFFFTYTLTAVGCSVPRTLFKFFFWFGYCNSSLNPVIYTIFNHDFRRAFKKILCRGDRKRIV
# T1 sequence (P18825 whole entry): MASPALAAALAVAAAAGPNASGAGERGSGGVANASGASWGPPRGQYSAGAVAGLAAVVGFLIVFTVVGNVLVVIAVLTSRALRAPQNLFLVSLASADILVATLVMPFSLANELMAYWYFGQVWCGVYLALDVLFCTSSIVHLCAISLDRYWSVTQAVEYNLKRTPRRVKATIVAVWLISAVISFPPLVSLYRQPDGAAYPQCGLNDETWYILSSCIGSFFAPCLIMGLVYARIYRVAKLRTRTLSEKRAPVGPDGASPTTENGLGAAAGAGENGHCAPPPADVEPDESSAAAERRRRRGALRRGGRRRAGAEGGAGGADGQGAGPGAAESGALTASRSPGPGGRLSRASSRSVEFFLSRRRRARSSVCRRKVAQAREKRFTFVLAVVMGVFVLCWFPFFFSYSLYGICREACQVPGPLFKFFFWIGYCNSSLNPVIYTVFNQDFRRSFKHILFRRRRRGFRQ
# T1 sequence (P18089 whole entry): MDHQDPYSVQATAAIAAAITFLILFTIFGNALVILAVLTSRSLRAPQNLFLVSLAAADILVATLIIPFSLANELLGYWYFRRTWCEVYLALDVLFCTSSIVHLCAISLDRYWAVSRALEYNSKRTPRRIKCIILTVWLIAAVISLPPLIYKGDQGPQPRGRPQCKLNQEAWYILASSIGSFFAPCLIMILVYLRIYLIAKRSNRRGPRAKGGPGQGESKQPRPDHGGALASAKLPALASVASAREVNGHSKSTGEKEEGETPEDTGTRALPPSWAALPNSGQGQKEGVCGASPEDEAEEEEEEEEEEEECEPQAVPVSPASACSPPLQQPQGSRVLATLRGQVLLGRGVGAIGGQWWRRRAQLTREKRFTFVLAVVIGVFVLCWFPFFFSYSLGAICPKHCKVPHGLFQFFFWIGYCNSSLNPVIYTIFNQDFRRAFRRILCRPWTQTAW
# [2] = target: T2, Adrenergic receptor alpha-1 (Rattus norvegicus, UniProt P15823+P23944+P43140); experiment: Alpha-1-adrenolytic activity was assessed from the ability to inhibit [3H]prazosin binding to rat cerebral cortex preparation; format: tissue-based
# T2 sequence (P15823 whole entry): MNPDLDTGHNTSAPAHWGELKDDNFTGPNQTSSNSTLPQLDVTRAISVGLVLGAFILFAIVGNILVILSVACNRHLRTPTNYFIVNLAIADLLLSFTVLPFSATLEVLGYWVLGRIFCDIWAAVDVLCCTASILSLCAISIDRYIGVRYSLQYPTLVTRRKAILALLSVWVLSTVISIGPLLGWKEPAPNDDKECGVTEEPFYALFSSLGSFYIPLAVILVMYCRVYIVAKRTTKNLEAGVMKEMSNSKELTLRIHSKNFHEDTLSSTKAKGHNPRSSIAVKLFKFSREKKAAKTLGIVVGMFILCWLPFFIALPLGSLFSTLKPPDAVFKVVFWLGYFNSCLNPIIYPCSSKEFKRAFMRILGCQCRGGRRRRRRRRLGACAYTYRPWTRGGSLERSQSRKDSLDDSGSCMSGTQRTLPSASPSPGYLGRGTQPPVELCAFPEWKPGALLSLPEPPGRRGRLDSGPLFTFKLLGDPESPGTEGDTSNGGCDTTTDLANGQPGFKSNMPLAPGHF
# T2 sequence (P23944 whole entry): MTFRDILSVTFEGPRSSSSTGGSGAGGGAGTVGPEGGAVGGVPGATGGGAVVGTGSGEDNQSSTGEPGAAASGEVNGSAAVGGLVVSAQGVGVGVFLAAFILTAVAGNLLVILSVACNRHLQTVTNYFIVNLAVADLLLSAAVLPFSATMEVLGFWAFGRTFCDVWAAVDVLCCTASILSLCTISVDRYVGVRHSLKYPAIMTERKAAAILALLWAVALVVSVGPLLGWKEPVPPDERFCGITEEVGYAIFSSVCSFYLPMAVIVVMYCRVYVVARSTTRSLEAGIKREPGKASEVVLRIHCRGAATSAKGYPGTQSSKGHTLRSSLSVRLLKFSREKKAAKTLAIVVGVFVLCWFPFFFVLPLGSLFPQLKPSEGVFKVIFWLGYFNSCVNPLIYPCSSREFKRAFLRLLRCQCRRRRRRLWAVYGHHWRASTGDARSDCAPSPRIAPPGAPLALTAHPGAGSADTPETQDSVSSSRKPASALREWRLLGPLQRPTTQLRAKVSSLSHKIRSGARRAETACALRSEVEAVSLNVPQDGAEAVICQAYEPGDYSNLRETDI
# T2 sequence (P43140 whole entry): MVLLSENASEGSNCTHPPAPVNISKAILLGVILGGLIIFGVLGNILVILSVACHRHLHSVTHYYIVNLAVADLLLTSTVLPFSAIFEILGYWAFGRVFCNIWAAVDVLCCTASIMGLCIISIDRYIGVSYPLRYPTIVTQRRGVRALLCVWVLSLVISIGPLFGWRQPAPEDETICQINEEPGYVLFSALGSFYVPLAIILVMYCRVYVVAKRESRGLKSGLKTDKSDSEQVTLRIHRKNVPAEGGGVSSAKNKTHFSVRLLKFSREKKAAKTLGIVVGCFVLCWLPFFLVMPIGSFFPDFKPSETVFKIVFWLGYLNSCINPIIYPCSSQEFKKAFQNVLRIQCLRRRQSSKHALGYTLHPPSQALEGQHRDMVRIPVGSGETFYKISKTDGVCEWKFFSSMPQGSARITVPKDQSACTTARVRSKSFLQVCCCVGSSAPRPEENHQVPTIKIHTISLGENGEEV
# Rattus norvegicus = species: Rattus norvegicus; experiment: Calcium antagonistic activity was evaluated by in vitro inhibition of [3H]nitrendipine binding on rat cerebral cortex; format: functional
# [3] = target: T2, Adrenergic receptor alpha-1; experiment: Alpha-1-adrenolytic activity was assessed in vitro from the ability to inhibit norepinephrine-induced contraction of rat aorta preparation
# [4] = Rattus norvegicus, Cerebral cortex, 90 min
Compound,IC50 [1],IC50 [2],IC50 (Rattus norvegicus; [4]),IC50 [3],IC50 (Rattus norvegicus),pA2 [1]
CO/C(O)=C1\C(C)=NC(C)=C(C(=O)OCCN(C)CC2COc3ccccc3O2)C1c1ccccc1[N+](=O)[O-] (stereo not given),> 1e-06 M,300 nM,0.07 nM,> 0.00001 M,–,–
COC(=O)C1=C(C)NC(C)=C(C(=O)OCCN(C)C[C@H]2COc3ccccc3O2)[C@@H]1c1cccc([N+](=O)[O-])c1.Cl (stereo in doubt; 6b),> 0.0001 M,2300 nM,–,> 0.00003 M,2.8 nM,–
CO/C(O)=C1\C(C)=NC(C)=C(C(=O)OCCN(C)C(C)COc2ccccc2)C1c1cccc([N+](=O)[O-])c1.Cl (stereo not given),–,380 nM,0.073 nM,0.00007 M,–,6.7
COC(=O)C1=C(C)NC(C)=C(C(=O)OCCN(C)C[C@H]2COc3ccccc3O2)[C@@H]1c1cccc([N+](=O)[O-])c1.Cl (stereo in doubt; 6a),>> 1e-6 M,2400 nM,–,0.00001 M,0.018 nM,–
CO/C(O)=C1\C(C)=NC(C)=C(C(=O)OCCN(C)CC2COc3ccccc3O2)C1c1cccc([N+](=O)[O-])c1.Cl (stereo not given),> 1e-06 M,500 nM,0.1 nM,0.00004 M,–,–
CO/C(O)=C1\C(C)=NC(C)=C(C(=O)OCCN(C)C(c2ccccc2)C2CCCCC2)C1c1cccc([N+](=O)[O-])c1.Cl (stereo not given),> 0.0001 M,75000 nM,3.8 nM,> 0.0001 M,–,–
CO/C(O)=C1\C(C)=NC(C)=C(C(=O)OC(C)CN(C)CC2COc3ccccc3O2)C1c1cccc([N+](=O)[O-])c1.Cl (stereo not given),>> 0.00001 M,1000 nM,0.05 nM,>> 0.0001 M,–,–
CO/C(O)=C1\C(C)=NC(C)=C(C(=O)OCCN2CCC(n3c(O)nc4ccccc43)CC2)C1c1cccc([N+](=O)[O-])c1 (stereo not given),>> 1e-6 M,41 nM,0.6 nM,0.00001 M,–,–
CC1=NC(C)=C(C(=O)OC(C)CN(C)CC2COc3ccccc3O2)C(c2cccc([N+](=O)[O-])c2)/C1=C(\O)OC(C)C.Cl (stereo not given),–,3900 nM,–,>> 0.00003 M,3.4 nM,–
